Assay results from US9096643B2, “Cell-protective peptides and uses thereof” (priority 2010, dated 2015).
No end group written: not given here.

What was measured:
[1] = system: neonatal rat CMs (heart cells); assay: Heart cell attachment on peptide-modified Az-chitosan coated coverslips (brightfield cell counts); format: cell-based, rat (Sprague-Dawley); conditions: coated glass coverslips, 1, 3 and 5 days of incubation, FIG. 1
Description: Neonatal (1 to 2 day-old) Sprague-Dawley rats were euthanized according to the procedure approved by the University of Toronto Committee on Animal Care. […] The supernatant from 5 collagenase digests of the tissues was collected and centrifuged at 750 rpm (94 g) for 4 min, resuspended in culture medium and pre-plated into T75 flasks (Falcon) for 1 hour to separate the non-adherent cells (enriched CMs) from the adherent cells (non-myocytes). The enriched CMs were used in the studies. The CM culture medium consisted of Dulbecco's Modified Eagle Medium (DMEM) with 4.5 g/L glucose, 4 mM L-glutamine, 10% certified fetal bovine serum (FBS), 100 U/mL penicillin, 100 μg/mL streptomycin, and 10 mM 4-2-hydroxyethyl-1-piperazineethanesulfonic acid buffer (HEPES, Gibco/Invitrogen).
The surfaces used for microscopy analysis were created on circular 12 mm diameter glass coverslips (VWR). These were plasma treated (WS-400BZ-6NPP/Lite, Laurell Technologies) for 30 s. […]
The day before cells were ready to be seeded, the surfaces in the 12-well plates were sterilized by germicidal UV illumination overnight. […]
Brightfield images were taken with 10× magnification of surfaces with cells (N=3) to visualize the morphology and cell attachment (IX81, Olympus). […] The number of cells was then counted using the cell counting plug-in on ImageJ (NIH version 1.36b).

[2] = system: neonatal rat CMs (heart cells); assay: Preliminary 3D cell encapsulation studies in hydrogels; format: cell-based, rat (Sprague-Dawley); conditions: encapsulated, 1 to 4 days of 3D culture
Description: The lyophilized form of the peptide-modified Az-chitosan was dissolved in sterile 0.9% saline at 12 mg/mL. CMs (2.5×10^6) were suspended in 15 μL of CM culture media with 30% serum for 15 minutes on ice. These cells were then suspended in 35 μL of the hydrogel and crosslinked in the transwell inserts of the 96 well plates. The cells were cultivated in the CM culture medium with 10% FBS for up to 4 days.

[3] = system: Rat neonatal cardiomyocytes; assay: ATP assay (CellTiter-Glo) in serum-starved cardiomyocytes; format: cell-based; conditions: 1 d
Description: Rat neonatal cardiomyocytes were incubated with PBS (control), 500 μM QHREDGS, scrambled QHREDGS peptide, GRGDSP peptide or 400 nM ang 1 or ang2 in DMEM/0.5% BSA/cytosine-β-D-arabinofuranoside (37° C., 5% CO2, 1 d). ATP levels were quantified using the CellTiter-Glo Luminescent Assay (Promega) as per manufacturer's instructions (N=6/group). Luminescence was measured using a Wallac 1420 microplate reader.

human iPS cells 0901B = assay: iPS colony formation / cloning efficiency after complete dissociation at clonal density; format: cell-based; conditions: 50 μM, trypsinized, clonal density, one week, FIG. 13B
Description: (§1) The human iPS cells (BJ1D and 0901B) were obtained from the Ontario iPSC Facility and used following the hiPS cell research guidelines of the University of Toronto as described by Hotta et al. Nat. Protoc. 4, 1828-1844 (2009)), unless specified otherwise. Cells were cultured on a feeder layer of MEF cells (Mount Sinai Hospital Toronto, inactivated with 10 μg/ml mitomycin C and seeded at 1.8×10^5 per 3.5 cm dish). For single cell cultures, hiPS cell colonies were dissociated in 0.25% Trypsin-EDTA (Invitrogen) for 5 min, followed by trituration with a pipette. To ensure a single-cell suspension, the dissociated cells were passed through a 40 μm cell strainer (BD Falcon) and seeded onto MEF plates at 10 cells/ml, 10 cm plates. Cells were allowed to grow for 7 days and the total number of colonies was counted. In the treated groups, QHREDGS (Biomatik) or DGQESHR (Biomatik) dissolved in PBS (Lonza), were added at the reported concentrations to culture media at the onset of the first treatment passage and replenished with each media change. Media was changed by 100% every day. Peptides and controls were included during dissociation and passaging. Cells were analyzed after 5 passages in continuous treatment with 50 μM QHREDGS, 50 μM DGQESHR, or PBS, unless specified otherwise.
(§2) iPS cells, BJ1D or 0901B were treated with 50 μM of QHREDGS peptide, or 50 μM DGQESHR scrambled peptide in PBS with a PBS treated control for five passages as a preparation for passage by trypsin. Cells were trypsinized and plated at a clonal density of 10 cells/ml for one week and the number of colonies were counted.
(§3) After 5 passages in pre-treatment with 50 μM QHREDGS, or controls and complete dissociation (trypsinized), human iPS cells, BJ1D or 0901B cells, were plated on a mouse embryonic fibroblast (MEF) feeder layer at low density (100 cells/plate, 10 cm plate) in maintenance medium containing 50 μM QHREDGS, PBS, or 50 μM DGQESHR scrambled peptide. After one-week in culture, untreated or DGQESHR (scrambled peptide) treated groups generated few colonies, whereas QHREDGS treated groups for both BJ1D or 0901B cells produced many large colonies (˜15 times more than the controls) (see FIG. 13A/B, respectively). The colonies were positive for Oct4, a marker for the undifferentiated state. The cloning efficiency, based on ratio of Oct4+ colonies formed per initially seeded human iPS cells, was 27+/−7.1% and 2.5+/−0.6% for BJ1D and 48+/−9.4% and 22.3+/−1.9 for 0901B in the presence and absence of QHREDGS, respectively. […] Thus, treatment with QHREDGS supports single-cell culture of human iPS cells through the promotion of colony formation.

human iPS cells BJ1D = assay: as above; format: cell-based; conditions: 50 μM, trypsinized, clonal density, one week, FIG. 13A
Description: as §1, §2, §3

[4] = system: neonatal rat cardiomyocytes; assay: Cardiomyocyte encapsulation in chitosan hydrogels, live/dead staining after 6 days; format: cell-based; conditions: peptide conjugated to Az-chitosan hydrogel, in vitro cultivation
Description: The lyophilized form of the peptide-modified Az-chitosan (Az-chitosan-QHREDGS or Az-chitosan-RGDS) was dissolved in sterile 0.9% PBS at 12 mg/mL. Cardiomyocytes (2.5×10^6) were suspended in 15 μL 30% FBS-containing culture medium for 15 min. on ice. These cells were further suspended in 35 μL of the hydrogel. This mixture was placed on a 12 mm diameter glass coverslip, which was placed on a UV lamp (UVP, 365 nm, 1 mW/cm^2 at 3″ distance, 115 V, 60 Hz, 0.16 Amp) and exposed to UV light for 5 min. The samples were then transferred to a 12 well plate and supplemented with 2 mL of warm cardiomyocyte culture media.
Live/dead staining was performed using 5-carboxyfluorescein diacetate acetoxymethly ester, which stains live cells green, and propidium iodide, which stains dead cells red according to the manufacturer's instruction (Invitrogen). Three sets of surfaces were analyzed for each sample type.

[5] = system: Rat neonatal cardiomyocytes; assay: Hydrogen peroxide treatment, Trypan blue viability (monolayer); format: cell-based; conditions: 200 nM ang 1 1.5 hr, 100 μM H2O2 10 min, FIG. 5A
Description: Rat neonatal cardiomyocytes were incubated for 1.5 hr with 500 μM QHREDGS, scrambled (scram) QHREDGS peptide (DGQESHR), or PBS control (PBS); 200 nM ang 1 or its matched buffer control [0.1% bovine serum albumin (BSA) in PBS] in the culture medium. The culture medium consisted of Dulbecco's Modified Eagle's Medium (DMEM) with 0.5% BSA and cytosine-β-D-arabinofuranoside (anti-proliferative). Reactive oxygen species were increased by addition of 100 μM H2O2 for 10 min (37° C., 5% CO2) (N=6/group). Cell viability was measured using a Trypan blue stain. Trypan blue dye is impermeable to viable cells, but enters dead/damaged cells with impaired membrane integrity, staining cells blue.

Az-chitosan-DGQESHR: scrambled QHREDGS peptide conjugated to Az-chitosan (also: conjugated to Az-chitosan, site not given here) [reference compound]
cell adhesion / cell attachment to coated surface [1]: did not have the same attachment results
heart cell survival and elongation in 3D hydrogel [2]: a large number of dead round cells

DGQESHR [scrambled QHREDGS peptide control, reference compound]
cardiac myocyte ATP levels ([3]; 500 μM peptide): no such effect
number of colonies (human iPS cells 0901B): few colonies
number of colonies (human iPS cells BJ1D): few colonies

GRGDSP [RGD-based peptides, reference compound]
cardiac myocyte ATP levels ([3]; 500 μM peptide): no such effect

QHREDGS (angiopoietin 1 peptide)
syncytium formation of encapsulated cardiomyocytes [4]: formation of a dense syncytium

B1: Angiopoietin 1 (protein, UniProt Q15389 1-498, looked up)
chain: MTVFLSFAFLAAILTHIGCSNQRRSPENSGRRYNRIQHGQCAYTFILPEHDGNCRESTTDQYNTNALQRDAPHVEPDFSSQKLQHLEHVMENYTQWLQKLENYIVENMKSEMAQIQQNAVQNHTATMLEIGTSLLSQTAEQTRKLTDVETQVLNQTSRLEIQLLENSLSTYKLEKQLLQQTNEILKIHEKNSLLEHKILEMEGKHKEELDTLKEEKENLQGLVTRQTYIIQELEKQLNRATTNNSVLQKQQLELMDTVHNLVNLCTKEGVLLKGGKREEEKPFRDCADVYQAGFNKSGIYTIYINNMPEPKKVFCNMDVNGGGWTVIQHREDGSLDFQRGWKEYKMGFGNPSGEYWLGNEFIFAITSQRQYMLRIELMDWEGNRAYSQYDRFHIGNEKQNYRLYLKGHTGTAGKQSSLILHGADFSTKDADNDNCMCKCALMLTGGWWFDACGPSNLNGMFYTAGQNHGKLNGIKWHYFKGPSYSLRSTTMMIRPLDF
modifications: full-length
notes: full length parent protein of QHREDGS
cardiomyocyte viability after exposure to H2O2 [5]: maintain cardiomyocyte viability
cardiac myocyte ATP levels ([3]; 400 nM protein): substantially increased

B2: ang2: ang2 protein comparator in the ATP assay (protein, UniProt O15123 19-496, looked up)
Angiopoietin-2: YNNFRKSMDSIGKKQYQVQHGSCSYTFLLPEMDNCRSSSSPYVSNAVQRDAPLEYDDSVQRLQVLENIMENNTQWLMKLENYIQDNMKKEMVEIQQNAVQNQTAVMIEIGTNLLNQTAEQTRKLTDVEAQVLNQTTRLELQLLEHSLSTNKLEKQILDQTSEINKLQDKNSFLEKKVLAMEDKHIIQLQSIKEEKDQLQVLVSKQNSIIEELEKKIVTATVNNSVLQKQQHDLMETVNNLLTMMSTSNSAKDPTVAKEEQISFRDCAEVFKSGHTTNGIYTLTFPNSTEEIKAYCDMEAGGGGWTIIQRREDGSVDFQRTWKEYKVGFGNPSGEYWLGNEFVSQLTNQQRYVLKIHLKDWEGNEAYSLYEHFYLSSEELNYRIHLKGLTGTAGKISSISQPGNDFSTKDGDNDKCICKCSQMLTGGWWFDACGPSNLNGMYYPQRQNTNKFNGIKWYYWKGSGYSLKATTMMIRPADF
cardiac myocyte ATP levels ([3]; 400 nM protein): no such effect
